One assay concerns the target T1, SadA (Burkholderia ambifaria, UniProt Q0B2N4).
T1 construct: gene Bamb_6045; dimer
T1 sequence (Q0B2N4 1-273): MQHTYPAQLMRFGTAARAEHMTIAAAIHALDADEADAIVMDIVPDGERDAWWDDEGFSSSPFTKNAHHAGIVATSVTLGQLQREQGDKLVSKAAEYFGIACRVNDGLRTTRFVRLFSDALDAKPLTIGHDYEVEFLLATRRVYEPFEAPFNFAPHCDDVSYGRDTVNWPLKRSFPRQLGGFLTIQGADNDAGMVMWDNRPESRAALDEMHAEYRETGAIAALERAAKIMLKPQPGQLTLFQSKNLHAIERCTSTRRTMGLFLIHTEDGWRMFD
Kind of assay: X-ray crystal structure, […] Å. In kind it is binding. The following applies: Zn(II) in place of Fe(II); cocrystallized with 10 mM α-KG; 0.1 M CHES pH 9.5, 30% PEG 3,000, 293 K; active site, chain A, bidentate to the metal.

The target of assay [1] is SadA, N-substituted L-amino acid dioxygenase from Burkholderia ambifaria AMMD (Burkholderia ambifaria AMMD). Kind of assay: SEC; Superdex 200 size-exclusion chromatography; calibrated with ovalbumin (43 kDa) and conalbumin (75 kDa).

With `O=C(O)CCC(=O)C(=O)O` [α-KG], on SadA, the “X-ray crystal structure, 1.98 Å” value is reported as “only one α-KG molecule is clearly observed in chain A of the SadA.Zn(II).α-KG structure”. With “SadA, N-substituted L-amino acid dioxygenase from Burkholderia ambifaria AMMD (enzyme)”, in assay [1], the stoichiometry N came to 2.

The record behind these values is publication PMC3665795, “Crystal Structure of a Novel N-Substituted L-Amino Acid Dioxygenase from Burkholderia ambifaria AMMD” (PLoS ONE, 2013).
